Like-named read-outs stand apart in the source and are kept apart here.

The test system of this assay is Utrophin A promoter linked to a luciferase reporter gene. Description: Luciferase reporter assay (murine H2K cells). Format: cell-based. As to conditions: Mus musculus, H2K mdx. Put shortly:
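Immortalized mdx mouse H2K myoblasts stably carrying a ~5 kb utrophin A promoter–luciferase construct, kept at 33° C, 10% CO2. After 24 hrs plating, compound added at 10 μM final for 48 hrs; luciferase light output read after in-situ lysis.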
(In a reporter assay the amount or activity of a reporter protein is the signal.)

Setting [1] is: luciferase level relative to control, H2K/mdx/Utro A reporter cells, compound 10 μM final concentration, read-out: Activity.

As to `Cc1ccc(-c2nc3cc(NC(=O)C(C)(C)C)ccc3o2)cc1` [Example 208, N-(2-p-tolylbenzo[d]oxazol-5-yl)pivalamide], the activity at 10 µM under setting [1] was in the range of 201 to 300%.
Take `Cc1ccc(-c2nc3cc(NC(=O)C(F)(F)F)ccc3o2)cc1` [Example 209, 2,2,2-trifluoro-N-(2-p-tolylbenzo[d]oxazol-5-yl)acetamide]: the activity at 10 µM under setting [1] was 201 to 300%.
Same read-out and setting: with `CC(C)(C)C(=O)Nc1ccc2oc(-c3ccc(Cl)cc3)nc2c1` [Example 210, N-(2-(4-chlorophenyl)benzo[d]oxazol-5-yl)pivalamide] the figure was 201 to 300%.
Still for that read-out and setting: the same measure for `O=C(Nc1ccc2oc(-c3ccc(Cl)cc3)nc2c1)C(F)(F)F` [Example 211, N-(2-(4-chlorophenyl)benzo[d]oxazol-5-yl)-2,2,2-trifluoroacetamide]: 201 to 300%; for `Cc1ccc(-c2nc3cc(Br)cnc3o2)cc1` [Example 212, 6-bromo-2-p-tolyloxazolo[5,4-b]pyridine]: 201 to 300%.
For the compound `Cc1ccc(-c2nc3cc(N)ccc3s2)cc1` [Example 213, 2-p-tolylbenzo[d]thiazol-5-amine], under setting [1], the activity at 10 µM is under 200%.
For the compound `O=[N+]([O-])c1ccc2oc(Cc3ccccc3)nc2c1` [Example 214, 2-benzyl-5-nitrobenzo[d]oxazole], under setting [1], the activity at 10 µM is under 200%.
Still for that read-out and setting: with `Cc1ccc(-c2nc3cc(C)c(C)cc3o2)cc1` [Example 215, 5,6-dimethyl-2-p-tolylbenzo[d]oxazole] the figure was over 401%; with `CCCC(=O)Nc1ccc2sc(-c3ccc(C)cc3)nc2c1` [Example 216, N-(2-p-tolylbenzo[d]thiazol-5-yl)butyramide], over 401%; with `Cc1ccc(-c2nc3cc(NC(=O)C(C)C)ccc3s2)cc1` [Example 217, N-(2-p-tolylbenzo[d]thiazol-5-yl)isobutyramide], over 401%.
On the same count and under the same terms, the same measure for `Cc1ccc(-c2nc3cc(C(N)=O)ccc3o2)cc1` [Example 218, 2-p-tolylbenzo[d]oxazole-5-carboxamide]: over 401%; for `CCC(=O)N(C)c1ccc2oc(-c3ccc(Cl)cc3)nc2c1` [Example 219, N-(2-(4-chlorophenyl)benzo[d]oxazol-5-yl)-N-methylpropionamide]: 301 to 400%; for `CC(C)S(=O)(=O)Nc1ccc2oc(-c3ccccc3)nc2c1` [Example 220, N-(2-phenylbenzo[d]oxazol-5-yl)propane-2-sulfonamide]: 201 to 300%.
On the same count and under the same terms, the same measure for `O=S(=O)(Nc1ccc2oc(-c3ccccc3)nc2c1)c1ccccc1` [Example 221, N-(2-phenylbenzo[d]oxazol-5-yl)benzenesulfonamide]: under 200%.
In the case of `Cc1cc2nc(-c3ccc(Cl)cc3)oc2cc1C` [Example 222, 2-(4-chlorophenyl)-5,6-dimethylbenzo[d]oxazole], the activity at 10 µM under setting [1] was over 401%.
`O=[N+]([O-])c1ccc2nc(-c3ccccn3)oc2c1` [Example 223, 6-nitro-2-(pyridin-2-yl)benzo[d]oxazole]: the activity at 10 µM under setting [1] was under 200%.
Still for that read-out and setting: with `Cc1cc2nc(-c3ccc(Cl)cc3Cl)oc2cc1C` [Example 224, 2-(2,4-dichlorophenyl)-5,6-dimethylbenzo[d]oxazole] the figure was over 401%; with `CCCC(=O)Nc1ccc2oc(-c3cccc(C(F)(F)F)c3)nc2c1` [Example 225, N-(2-(3-(trifluoromethyl)phenyl)benzo[d]oxazol-5-yl)butyramide], under 200%; with `Cc1ccccc1-c1nc2cc(NC(=O)C(C)C)ccc2o1` [Example 226, N-(2-o-tolylbenzo[d]oxazol-5-yl)isobutyramide], over 401%.
As for `CCCC(=O)Nc1ccc2oc(Cc3ccccc3)nc2c1` [Example 227, N-(2-benzylbenzo[d]oxazol-5-yl)butyramide], the activity at 10 µM under setting [1] was under 200%.
Same read-out and setting: the same measure for `CC(C)C(=O)Nc1ccc2oc(Cc3ccccc3)nc2c1` [Example 228, N-(2-benzylbenzo[d]oxazol-5-yl)isobutyramide]: under 200%; for `CCCC(=O)Nc1ccc2oc(-c3ccccc3Cl)nc2c1` [Example 229, N-(2-(2-chlorophenyl)benzo[d]oxazol-5-yl)butyramide]: 301 to 400%; for `CC(C)C(=O)Nc1ccc2oc(-c3ccccc3Cl)nc2c1` [Example 230, N-(2-(2-chlorophenyl)benzo[d]oxazol-5-yl)isobutyramide]: over 401%.
With `CC(C)C(=O)Nc1ccc2oc(-c3cccc(Cl)c3)nc2c1` [Example 231, N-(2-(3-chlorophenyl)benzo[d]oxazol-5-yl)isobutyramide], the activity at 10 µM under setting [1] is over 401%.
On the same count and under the same terms, with `Nc1ccc2oc(-c3cccc(F)c3)nc2c1` [Example 232, 2-(3-fluorophenyl)benzo[d]oxazol-5-amine] the figure was over 401%.
Same read-out and setting: the same measure for `Cc1ccc(-c2nc3cc(NC(=O)CCC(F)(F)F)ccc3o2)cc1` [Example 233, 4,4,4-trifluoro-N-(2-p-tolylbenzo[d]oxazol-5-yl)butanamide]: under 200%; for `Cc1ccc(-c2nc3c(N)cccc3o2)cc1` [Example 234, 2-p-tolylbenzo[d]oxazol-4-amine]: 301 to 400%; for `CCCC(=O)Nc1cccc2oc(-c3ccc(C)cc3)nc12` [Example 235, N-(2-p-tolylbenzo[d]oxazol-4-yl)butyramide]: under 200%.
Regarding `Cc1ccc(-c2nc3c(NC(=O)C(C)C)cccc3o2)cc1` [Example 236, N-(2-p-tolylbenzo[d]oxazol-4-yl)isobutyramide], under setting [1], the activity at 10 µM is under 200%.
Same read-out and setting: the same measure for `Cc1ccc(-c2nc3ccc(N)cc3o2)cc1` [Example 237, 2-p-tolylbenzo[d]oxazol-6-amine]: over 401%; for `Cc1cc(NC(=O)c2ccc(F)cc2F)c(OC(=O)c2ccc(F)cc2F)cc1C` [Example 238, 2-(2,4-difluorobenzamido)-4,5-dimethylphenyl 2,4-difluorobenzoate]: under 200%.
Turning to `CCCC(=O)Nc1ccc2oc(-c3cccc(Cl)c3)nc2c1` [Example 239, N-(2-(3-chlorophenyl)benzo[d]oxazol-5-yl)butyramide], under setting [1], the activity at 10 µM is under 200%.
For the compound `O=C(Nc1ccccc1)Nc1ccc2oc(-c3ccccc3)nc2c1` [Example 240, 1-phenyl-3-(2-phenylbenzo[d]oxazol-5-yl)urea], the activity at 10 µM under setting [1] was in the range of 301 to 400%.
On the same count and under the same terms, with `CC(C)NC(=O)Nc1ccc2oc(-c3ccccc3)nc2c1` [Example 241, 1-isopropyl-3-(2-phenylbenzo[d]oxazol-5-yl)urea] the figure was under 200%; with `CCCC(=O)Nc1ccc2oc(-c3ccccc3F)nc2c1` [Example 242, N-(2-(2-fluorophenyl)benzo[d]oxazol-5-yl)butyramide], under 200%; with `CC(C)C(=O)Nc1ccc2oc(-c3ccccc3F)nc2c1` [Example 243, N-(2-(2-fluorophenyl)benzo[d]oxazol-5-yl)isobutyramide], 301 to 400%.
Regarding `CCCC(=O)Nc1ccc2oc(-c3cccc(F)c3)nc2c1` [Example 244, N-(2-(3-fluorophenyl)benzo[d]oxazol-5-yl)butyramide], the activity at 10 µM under setting [1] was over 401%.
On to `CC(C)C(=O)Nc1ccc2oc(-c3cccc(F)c3)nc2c1` [Example 245, N-(2-(3-fluorophenyl)benzo[d]oxazol-5-yl)isobutyramide], for which, under setting [1], the activity at 10 µM lay within 301 to 400%.
`CC(C)(C)OC(=O)NCCC(=O)Nc1ccc2oc(-c3ccccc3)nc2c1` [Example 246, tert-butyl 3-oxo-3-(2-phenylbenzo[d]oxazol-5-ylamino)propylcarbamate]: the activity at 10 µM under setting [1] was under 200%.
Still for that read-out and setting: with `Cc1cc2nc(-c3ccc(F)cc3F)oc2cc1C` [Example 247, 2-(2,4-difluorophenyl)-5,6-dimethylbenzo[d]oxazole] the figure was 201 to 300%.
Same read-out and setting: with `CC(C)C(=O)Nc1ccc2oc(C3CCCCC3)nc2c1` [Example 248, N-(2-cyclohexylbenzo[d]oxazol-5-yl)isobutyramide] the figure was over 401%; with `CCCC(=O)Nc1ccc2oc(C3CCCCC3)nc2c1` [Example 249, N-(2-cyclohexylbenzo[d]oxazol-5-yl)butyramide], under 200%; with `CCCCc1ccc(-c2nc3cc([N+](=O)[O-])ccc3o2)nc1` [Example 250, 2-(5-butylpyridin-2-yl)-5-nitrobenzo[d]oxazole], under 200%.
With `Nc1ccc2sc(-c3ccccc3)nc2c1` [Example 251, 2-phenylbenzo[d]thiazol-5-amine], the activity at 10 µM is 301 to 400%.
For `CC(=O)Nc1ccc(-c2ccc3oc(-c4ccc(Cl)cc4)nc3c2)cc1` [Example 252, N-(4-(2-(4-chlorophenyl)benzo[d]oxazol-5-yl)phenyl)acetamide], under setting [1], the activity at 10 µM was in the range of 301 to 400%.
Same read-out and setting: with `CCCS(=O)(=O)Nc1ccc2oc(-c3ccc(C)cc3)nc2c1` [Example 253, N-(2-p-tolylbenzo[d]oxazol-5-yl)propane-1-sulfonamide] the figure was under 200%; with `Cc1ccc(-c2nc3cc(NC(=O)CC(F)(F)F)ccc3o2)cc1` [Example 254, 3,3,3-trifluoro-N-(2-p-tolylbenzo[d]oxazol-5-yl)propanamide], 201 to 300%.
Turning to `CC(C)C(=O)Nc1ccc2nc(-c3ccc(Cl)cc3)oc2c1` [Example 255, N-(2-(4-chlorophenyl)benzo[d]oxazol-6-yl)isobutyramide], the activity at 10 µM under setting [1] is over 401%.
For the compound `CCCC(=O)Nc1ccc2nc(-c3ccc(Cl)cc3)oc2c1` [Example 256, N-(2-(4-chlorophenyl)benzo[d]oxazol-6-yl)butyramide], the activity at 10 µM under setting [1] fell in the range of 201 to 300%.
With `CC(C)C(=O)Nc1ccc2oc(-c3ccc(Cl)cc3Cl)nc2c1` [Example 257, N-(2-(2,4-dichlorophenyl)benzo[d]oxazol-5-yl)isobutyramide], under setting [1], the activity at 10 µM is under 200%.
Same read-out and setting: the same measure for `CC(C)C(=O)Nc1ccc2oc(-c3ccc(F)cc3)nc2c1` [Example 258, N-(2-(4-fluorophenyl)benzo[d]oxazol-5-yl)isobutyramide]: 301 to 400%.

These data come from patent US8501713B2, “Drug combinations for the treatment of duchenne muscular dystrophy” (Summit Corporation PLC, priority 2007, dated 2013).
